Tests used:
B16/F1 melanocytes [1] = assay: Inhibition of extracellular melanin production in B16/F1 melanocyte cultures; assay type: cell-based, Mouse; details: for % Inhibition of extracellular melanin production relative to the control / Extracellular melanin (control: 98 μg ± 4 μg/ml): 72 hours incubation; for Depigmenting effect (summary in text of Table 1): B16/F1 melanocytes, doses of Table 1
Procedure: The influence of N-undecylenoyl phenylalanine monoglyceride, arbutin and N-undecylenoyl phenylalanine on the production of extracellular melanin, in B16/F1 melanocyte cultures, was compared.
Mouse melanocytes of the B16/F1 line cultured as monolayers are seeded in 96-well culture plates at a density of 1500 cells/well. The cells are cultured in a culture medium (MCM medium) at 37° C. under a humid atmosphere containing 5% CO2. The cells are used at 50% of confluence. The MCM medium has the following composition: DMEM medium (Dulbecco's Modified Eagle's Medium) containing 4.5 g/l of glucose supplemented with L-glutamine (2 mM), penicillin (50 IU/ml), streptomycin (50 μg/ml) and fetal calf serum (10% v/v). […] The melanocyte cultures are incubated in the presence of the test product or of the reference products for 72 hours at 37° C., under a humid atmosphere containing 5% CO2. Control cultures are incubated, in the absence of product, in the MCM medium. These control cultures are prepared on each culture plate. Each test is performed six times. After incubation for 72 hours, the incubation media of the cells (n=6) are taken up and stored at −80° C. until the time of evaluation of the effects. The extracellular melanin is quantified by spectrophotometry at 450 nm. A melanin calibration range is prepared in parallel. The results are expressed as μg/ml of extracellular melanin and as a percentage of inhibition relative to the control group in Table 1 below.

B16/F1 melanocytes [2] = assay: Cytotoxic effect in B16/F1 melanocyte cultures (Bradford total protein); assay type: cell-based, Mouse; details: for Cytotoxic effects (summary of Table 2): B16/F1 melanocytes, doses of Table 2; for % Decrease of the total amount of protein relative to the control / Evaluation (cytotoxicity): 72 hours incubation
Procedure: Study of the Cytotoxic Effect of the Compound of Formula (I) in B16/F1 melanocyte Cultures
Evaluation of the presence of cytotoxic effects is performed using the Bradford technique by staining with Coomassie blue (Bradford M., “A rapid and sensitive method for the quantification of microgram quantities of protein utilizing the principle of protein-dye binding”, Anal. Biochem., 1976, 72, 248-254). The B16/F1 melanocytes are incubated after seeding with the dilutions of the test products. After 72 hours of incubation, the B16/F1 melanocytes are washed and then lyzed, and Bradford's reagent is then added. After incubation for 5 minutes at room temperature, a spectrophotometric reading is taken at 640 nm in parallel with an albumin calibration range. The cytotoxicity is proven for a decrease greater than or equal to 20% of the total amount of protein. The results are expressed as a percentage decrease of the total amount of protein, in Table 2 below.

Compound | % Inhibition of extracellular melanin production relative to the control (B16/F1 melanocytes [1]; test product 40 μg/ml) [%] | Extracellular melanin (control: 98 μg ± 4 μg/ml) (B16/F1 melanocytes [1]; test product 40 μg/ml, n=6) [µg/mL] | % Inhibition of extracellular melanin production relative to the control (B16/F1 melanocytes [1]; test product 80 μg/ml) | Extracellular melanin (control: 98 μg ± 4 μg/ml) (B16/F1 melanocytes [1]; test product 80 μg/ml) | Cytotoxic effects (summary of Table 2) (B16/F1 melanocytes [2]) | % Decrease of the total amount of protein relative to the control (B16/F1 melanocytes [2]; test product 50 μg/ml) [%] | Evaluation (cytotoxicity) (B16/F1 melanocytes [2]; test product 50 μg/ml) | % Decrease of the total amount of protein relative to the control (B16/F1 melanocytes [2]; test product 80 μg/ml) | Evaluation (cytotoxicity) (B16/F1 melanocytes [2]; test product 80 μg/ml) | Depigmenting effect (summary in text of Table 1) (B16/F1 melanocytes [1]) | % Decrease of the total amount of protein relative to the control (B16/F1 melanocytes [2]; test product 40 μg/ml) | % Decrease of the total amount of protein relative to the control (B16/F1 melanocytes [2]; test product 60 μg/ml)
C=CCCCCCCCCC(=O)N[C@@H](Cc1ccccc1)C(=O)O [N-Undecylenoyl phenylalanine, N-undecylenoyl phenylalanine] | 40 | 59 ± 3 | Cytotoxicity | Cytotoxicity | cytotoxic | 32 | Cytotoxic (The cytotoxicity is proven for a decrease greater than or equal to 20% of the total amount of protein) | 80% | Cytotoxic (The cytotoxicity is proven for a decrease greater than or equal to 20% of the total amount of protein) |  |  | 
OC[C@H]1O[C@@H](Oc2ccc(O)cc2)[C@H](O)[C@@H](O)[C@@H]1O [Arbutin, reference compound] | 61 | 39 ± 3 |  |  |  |  |  |  |  |  |  | 
C=CCCCCCCCCC(=O)NC(Cc1ccccc1)C(=O)OCC(O)CO (stereo not shown) [Compound (A), N-undecylenoyl phenylalanine monoglyceride] | 15 | 84 ± 8 | 58% | 42 ± 1 µg/mL | absence of cytotoxic effects |  |  | No observed decrease |  | depigmenting effect | No observed decrease | 
C=CCCCCCCCCC(=O)NC(Cc1ccccc1)C(=O)OCC(O)COCC(O)CO (stereo not shown) [Compound (B), N-undecylenoyl phenylalanine diglyceryl ester] |  |  | 34% | 54 ± 3 µg/mL | absence of cytotoxic effects |  |  | No observed decrease |  | depigmenting effect |  | No observed decrease

Source: US8323627B2, “Monoester of N-undecylenoyl phenylalanine and polyol, method for preparing same, and use of said esters as a skin lightening agent” (Societe d'Exploitation de Produits pour les Industries …, priority 2008, dated 2012)
